Here are results for five compounds from patent publication US10780083B1, “Charged ion channel blockers and methods for use” (Nocion Therapeutics, Inc., priority 2019, dated 2020).

The nature of the series: PAMPA membrane permeability assay. The settings on record: pH 7.4 buffer, incubated for 4 hours, passive diffusion. It counts as in vitro ADME. The procedure: The PAMPA assay (pION, Inc., Woburn Mass.) was used to determine the ability of compounds of the invention to cross an artificial lipid membrane by passive diffusion. Test compounds were dissolved in DMSO (10 mM) and diluted 200-fold in buffer (pION Inc., pH 7.4) to provide 50 uM stock solutions. Buffer (150 μL) was added to a UV blank plate and stock solutions (150 μL) were transferred to a UV reference plate. The blank and reference spectrum were read using a spectrophotometer. Stock solutions (200 μL) were added to the donor plate of the PAMPA sandwich plate and an accept plate painted with GIT lipid (pION Inc, 5 μL) was placed on top. Buffer (200 μL) was added to the acceptor plate and the PAMPA sandwich plate was incubated for 4 hours. Aliquots (150 μL) from the acceptor plate were added to a UV plate and read as acceptor spectrum. Aliquots (150 μL) of the donor solutions were added to a UV analysis plate and read as donor spectrum. The permeability coefficient of test compounds was calculated using PAMPA Explorer™ software (version 3.5.0.4) based on the AUC of the reference plate, the donor plate, and the acceptor plate.
(PAMPA measures passive passage across an artificial lipid membrane.)

Where only a bound is given, the exact number is not on record here.

For orientation: Papp means a coefficient for how fast a substance crosses the barrier. In the case of `Cc1cccc(C)c1NC(=O)C[N+]1(Cc2ccccc2)CCCC1.[Br-]` [2A′, 1-benzyl-1-(2-((2,6-dimethylphenyl)amino)-2-oxoethyl) pyrrolidin-1-ium bromide], the Papp at 4 h, 50 uM was < 1 ×10⁻⁶ cm/s.
To `CCC(C(=O)Nc1c(C)cccc1C)[N+]1(Cc2ccccc2)CCCCC1.[Br-]` (centres unmarked) [3A′, 1-benzyl-1-(1-((2,6-dimethylphenyl)amino)-1-oxobutan-2-yl)piperidin-1-ium bromide] belongs < 1 ×10⁻⁶ cm/s; to `Cc1cccc(C)c1NC(=O)C[N+]1(Cc2ccccc2)CCCCCC1.[Br-]` [4A′, 1-benzyl-1-(2-((2,6-dimethylphenyl)amino)-2-oxoethyl) azepan-1-ium bromide], < 1 ×10⁻⁶ cm/s; to `CCC(C(=O)Nc1c(C)cccc1C)[N+]1(Cc2ccccc2)CCCCCC1.[Br-]` (centres unmarked) [5A′, 1-benzyl-1-(1-((2,6-dimethylphenyl)amino)-1-oxobutan-2-yl) azepan-1-ium bromide], < 1 ×10⁻⁶ cm/s.
To `Cc1cccc(C)c1NC(=O)C[N+]1(Cc2ccccc2)CCCCCCC1.[Br-]` [6A′, 1-benzyl-1-(2-((2,6-dimethylphenyl)amino)-2-oxoethyl) azocan-1-ium bromide] belongs < 1 ×10⁻⁶ cm/s.
